In the NIST ThermoML archive (doi:10.1021/acs.jced.5b00820):

Test: refractive index (Na D-line) (dimensionless); xn = mol fraction of the nth substance listed
Settings: 102.2 kPa, Liquid, Standard Abbe refractometry

C[Si](C)(O[Si](C)(C)c1ccccc1)c1ccccc1 [1,3-diphenyltetramethyldisiloxane] + C[Si]1(C)O[Si](C)(C)O[Si](C)(C)O[Si](C)(C)O1
refractive index
Settings | 308.15 K | 313.15 K | 318.15 K | 323.15 K | 328.15 K
x1 = 0.05 | 1.3951 | 1.39261 | 1.3901 | 1.38762 | 1.38512
x1 = 0.0999 | 1.40098 | 1.39849 | 1.39602 | 1.39357 | 1.39102
x1 = 0.1503 | 1.40694 | 1.40447 | 1.40199 | 1.39957 | 1.39707
x1 = 0.2005 | 1.41292 | 1.41044 | 1.40799 | 1.40557 | 1.40311
x1 = 0.2507 | 1.41891 | 1.41644 | 1.41401 | 1.41159 | 1.40913
x1 = 0.2963 | 1.42436 | 1.42193 | 1.41951 | 1.41708 | 1.41464
x1 = 0.3509 | 1.43091 | 1.42847 | 1.42607 | 1.42366 | 1.42126
x1 = 0.4001 | 1.43683 | 1.4344 | 1.43201 | 1.42964 | 1.42721
x1 = 0.4471 | 1.44251 | 1.44009 | 1.4377 | 1.4353 | 1.4329
x1 = 0.4968 | 1.44855 | 1.44616 | 1.44376 | 1.44142 | 1.43901
x1 = 0.5512 | 1.45518 | 1.45281 | 1.45043 | 1.44806 | 1.44571
x1 = 0.6003 | 1.46117 | 1.45878 | 1.45644 | 1.45407 | 1.45173
x1 = 0.6502 | 1.46727 | 1.46493 | 1.46256 | 1.46023 | 1.45785
x1 = 0.7001 | 1.47342 | 1.47107 | 1.46872 | 1.46638 | 1.46407
x1 = 0.7497 | 1.47954 | 1.47718 | 1.47488 | 1.47255 | 1.47021
x1 = 0.8 | 1.48577 | 1.48342 | 1.48109 | 1.47882 | 1.47646
x1 = 0.85 | 1.49197 | 1.48966 | 1.48733 | 1.48504 | 1.48273
x1 = 0.896 | 1.49768 | 1.49532 | 1.49303 | 1.49072 | 1.48841
x1 = 0.9497 | 1.50436 | 1.50202 | 1.49976 | 1.49748 | 1.49518
x1 = 1 | 1.51064 | 1.50832 | 1.50605 | 1.50377 | 1.50144
